Data set [1] relates to LNCaP cells. In words: MTT colorimetric anti-proliferative assay. It counts as cell-based, human. The procedure: The cells were treated for 7 days with renewal of test compound and media on day 4. On the 7th day, medium was renewed and MTT (3-(4,5-dimethylthiazol-2-yl)-2,5-diphenyl-2H-tetrazolium bromide) (Sigma, St Louis, Mo., USA) solution (0.5 mg MTT per ml of media) was added to the medium such that the ratio of MTT: medium was 1:10. The cells were incubated with MTT for 2 hours. The medium was then aspirated and DMSO was added to solubilize the violet MTT-formazan product.

For data set [2], the system named is full-length AR. Nature of the data set: Down-regulation of full-length AR, western blot in CWR22rv1 cells. It counts as cell-based, human. Conditions: CWR22rv1 prostate cancer cell line. The procedure: (§1) Due to the potential implication of AR splice variants lacking the ligand-binding domain (truncated AR) in driving the progression of CRPC, the effects of the compounds on the down-regulation of AR-3 (also called AR-V7) were determined.
(§2) For the Western blot analyses, LNCaP or CWR22v1 prostate cancer cells were cultured. The cells were then treated with the indicated compounds and whole cell lysates were prepared using RIPA lysis buffer (Sigma Aldrich) and protease and phosphatase inhibitors (Sigma Aldrich). All of the antibodies were ordered from cell signaling technology. Protein content was determined using the Bradford Assay (Bio-Rad, Hercules, Calif., USA). Protein was subjected to SDS-PAGE and transferred onto nitrocellulosemembrane. Membranes were then incubated with secondary antibody (cell signaling technology) at room temperature for 1 hour. Bands were visualized by chemiluminescence (Millipore). Protein expression was normalized to β-actin and densitometry was carried out using Image J or ImageQuant 5.0 (Molecular Dynamics, Sunnyvale, Calif., USA).
Background: Immunoblotting shows a protein as a band on a membrane.

Data set [3] concerns the target T1, AR-3 (also called AR-V7) (Homo sapiens, UniProt P10275).
T1 construct: endogenous in cells; host or cells: CWR22Rv1
T1 sequence (P10275 1-644 isoform P10275-3): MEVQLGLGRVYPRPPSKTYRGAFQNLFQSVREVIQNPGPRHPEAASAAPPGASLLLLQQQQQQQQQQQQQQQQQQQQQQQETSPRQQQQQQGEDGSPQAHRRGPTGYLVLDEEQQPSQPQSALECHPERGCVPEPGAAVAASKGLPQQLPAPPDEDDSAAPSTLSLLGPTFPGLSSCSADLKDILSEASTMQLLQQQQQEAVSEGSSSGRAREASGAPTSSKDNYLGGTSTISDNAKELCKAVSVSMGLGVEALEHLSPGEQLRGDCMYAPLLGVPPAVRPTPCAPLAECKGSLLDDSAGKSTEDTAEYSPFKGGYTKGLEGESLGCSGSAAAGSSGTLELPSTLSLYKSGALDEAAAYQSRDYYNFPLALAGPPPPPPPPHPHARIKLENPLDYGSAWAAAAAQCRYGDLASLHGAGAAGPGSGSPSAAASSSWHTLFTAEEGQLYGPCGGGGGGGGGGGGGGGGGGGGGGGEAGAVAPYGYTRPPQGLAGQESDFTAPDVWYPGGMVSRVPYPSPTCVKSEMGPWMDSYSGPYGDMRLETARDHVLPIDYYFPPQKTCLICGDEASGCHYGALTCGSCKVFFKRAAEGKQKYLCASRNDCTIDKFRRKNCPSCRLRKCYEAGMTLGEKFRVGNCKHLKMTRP
Nature of the data set: Down-regulation of truncated AR splice variant, western blot in CWR22rv1 cells. It counts as cell-based. To be noted: CWR22rv1 prostate cancer cell line. The procedure:
as §1, §2

In data set [4] the target is T2, human CYP17A1 (CYP171dH) (Homo sapiens, UniProt P05093).
T2 sequence (P05093 with tags, fused parts or gaps limits assumed): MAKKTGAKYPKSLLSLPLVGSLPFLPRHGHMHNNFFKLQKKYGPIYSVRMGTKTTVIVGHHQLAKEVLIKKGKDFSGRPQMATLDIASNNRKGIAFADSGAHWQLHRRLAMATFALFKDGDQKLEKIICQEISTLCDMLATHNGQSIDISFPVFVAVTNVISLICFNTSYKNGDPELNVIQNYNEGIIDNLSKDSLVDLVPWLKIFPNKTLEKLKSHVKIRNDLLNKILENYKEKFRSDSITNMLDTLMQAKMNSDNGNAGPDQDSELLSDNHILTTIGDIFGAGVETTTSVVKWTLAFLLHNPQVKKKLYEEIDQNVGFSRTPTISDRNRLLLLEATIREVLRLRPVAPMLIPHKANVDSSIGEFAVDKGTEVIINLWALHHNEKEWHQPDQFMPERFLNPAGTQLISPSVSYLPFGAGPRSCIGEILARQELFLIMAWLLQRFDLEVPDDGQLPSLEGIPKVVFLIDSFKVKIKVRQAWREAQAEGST
In words: CYP17 inhibition studies. It is filed as biochemical. The procedure:
Some compounds were evaluated for their ability to inhibit CYP17 enzyme. A truncated version of human CYP17A1 (CYP171dH) was expressed in E. coli and then purified to homogeneity.

Data set [5] in a line: Solubility in ethanol or DMSO. It counts as physicochemical.
The target in data set [6] is T3, AR (Homo sapiens, UniProt P10275, T878A).
T3 construct: host or cells: LNCaP
T3 sequence (P10275 1-920 T878A): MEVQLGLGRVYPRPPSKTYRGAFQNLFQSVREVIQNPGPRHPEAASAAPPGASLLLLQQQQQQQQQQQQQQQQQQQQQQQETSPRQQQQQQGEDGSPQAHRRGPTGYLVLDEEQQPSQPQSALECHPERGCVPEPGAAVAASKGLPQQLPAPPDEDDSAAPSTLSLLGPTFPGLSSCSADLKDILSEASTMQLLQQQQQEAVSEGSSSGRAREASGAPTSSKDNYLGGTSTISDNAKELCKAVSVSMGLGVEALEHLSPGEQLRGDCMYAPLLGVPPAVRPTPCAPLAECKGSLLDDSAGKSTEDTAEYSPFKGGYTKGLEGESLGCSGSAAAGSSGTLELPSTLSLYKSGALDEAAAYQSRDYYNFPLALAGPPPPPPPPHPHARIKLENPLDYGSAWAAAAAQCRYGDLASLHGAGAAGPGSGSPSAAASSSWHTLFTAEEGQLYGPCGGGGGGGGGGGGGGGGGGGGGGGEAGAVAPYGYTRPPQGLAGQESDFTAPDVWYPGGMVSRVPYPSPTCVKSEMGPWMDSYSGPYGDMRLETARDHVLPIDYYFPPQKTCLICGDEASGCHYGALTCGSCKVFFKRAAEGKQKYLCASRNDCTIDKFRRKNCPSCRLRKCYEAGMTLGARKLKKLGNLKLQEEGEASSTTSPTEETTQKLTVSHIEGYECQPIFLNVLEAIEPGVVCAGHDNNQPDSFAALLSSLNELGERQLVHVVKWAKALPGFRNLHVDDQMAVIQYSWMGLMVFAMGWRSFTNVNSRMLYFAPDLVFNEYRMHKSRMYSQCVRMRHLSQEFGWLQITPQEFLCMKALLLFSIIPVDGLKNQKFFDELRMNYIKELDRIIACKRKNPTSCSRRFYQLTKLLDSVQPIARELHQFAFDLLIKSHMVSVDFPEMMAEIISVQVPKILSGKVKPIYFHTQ
In words: AR down-regulation, western blot analysis in LNCaP cells. It counts as cell-based. To be noted: 24 h, western blot. The procedure:
For the Western blot analyses, LNCaP or CWR22v1 prostate cancer cells were cultured. The cells were then treated with the indicated compounds and whole cell lysates were prepared using RIPA lysis buffer (Sigma Aldrich) and protease and phosphatase inhibitors (Sigma Aldrich). All of the antibodies were ordered from cell signaling technology. Protein content was determined using the Bradford Assay (Bio-Rad, Hercules, Calif., USA). Protein was subjected to SDS-PAGE and transferred onto nitrocellulosemembrane. Membranes were then incubated with secondary antibody (cell signaling technology) at room temperature for 1 hour. Bands were visualized by chemiluminescence (Millipore). Protein expression was normalized to β-actin and densitometry was carried out using Image J or ImageQuant 5.0 (Molecular Dynamics, Sunnyvale, Calif., USA). CWR22Rv1 cells were used for endogenous levels of splice variant AR-3. Protein levels were analyzed with respective antibodies; full length AR and β-actin antibodies were purchased from cell signaling, antibody specific for splice variant AR-3 was obtained from Dr. Yun Qiu, University of Maryland, School of Medicine, Baltimore.

For data set [7], the target named is T4, AR in LNCaP cells (Homo sapiens, UniProt P10275, T878A).
T4 sequence (P10275 1-920 T878A): T3 sequence (P10275 1-920 T878A)
In words: Whole cell competitive binding assay with [3H]R1881. Conditions: 30 µM.
Description: The androgen receptor competitive binding assays were performed with the synthetic androgen methyltrienolone [^3H]R1881. […] To determine the kinetics of [^3H]R1881 binding to the LNCaP AR cells were plated (2-3×10^5 cells/well) in 24 well multiwell dishes in steroid-free medium and allowed to attach. […] Following a 2 hour incubation period at 37° C., cells were washed twice with ice-cold DPBS and solubilized in DPBS containing 0.5% SDS and 20% glycerol. Extracts were removed and cell associated radioactivity counted in a scintillation counter. The data was analyzed, including Kd and Bmax determination, by nonlinear regression using Graphpad Prism software (GraphPad Software, Inc, San Diego, Calif.). When the concentration of [^3H]R1881 required to almost saturate AR in both cell lines was established (5.0 nM), the ability of the test compounds (1 nM-10 μM) to displace [^3H]R1881 (5.0 nM) from the receptors was determined as described above. The IC50 of each compound was determined by nonlinear regression with Graphpad Prism software (GraphPad Software, Inc, San Diego, Calif.).

The mark [8] stands for this setting: Homo sapiens, LNCaP, 168 h, LNCaP, MTT, 7 days, Table 4, read-out: GI50 of C-3 modified compounds.
The mark [9] stands for this setting: each in duplicate, from dose-response curves.
Setting [10] is: Homo sapiens, LNCaP, 168 h, LNCaP, MTT, 7 days, Table 2, read-out: GI50 of C-17 modified compounds.

Several values for one entry are separate records, joined by “and”; a condition that tells them apart may be missing. Identical values can stand only once. Like-named read-outs stand apart in the source and are kept apart here.

One may read the GI50 as the concentration giving 50% growth inhibition. The IC50 is the concentration that inhibits the measured activity by half. Read a low IC50 as greater potency in that assay. Broadly, the melting point is the temperature, or range, at which the solid turns liquid.

With `C[C@]12CCC(=NO)C=C1CC[C@@H]1[C@@H]2CC[C@]2(C)C(n3cnc4ccccc43)=CC[C@@H]12` (mixture of isomers) [Compound 36, 3-((EZ)-Hydroximino)-17-(1H-Benzimidazol-1-yl)-androsta-4,16-diene], the GI50 in data set [1] (setting [8]) is 1.91 µM. In data set [2], the “down-regulation of full-length AR” value is “significant down-regulation”. The “down-regulation of truncated AR (AR-3)” value in data set [3] was “significant down-regulation”. The IC50 in data set [4] (setting [9]) is 93.7 to 258 µM and 258 µM.

As for `C[C@]12CCC(=NOc3ccccc3)C=C1CC[C@@H]1[C@@H]2CC[C@]2(C)C(n3cnc4ccccc43)=CC[C@@H]12` (mixture of isomers) [Compound 37, 3-((EZ)—O-Phenyloxime)-17-(1H-Benzimidazol-1-yl)-androsta-4,16-diene], in data set [5], the “solubility in ethanol or DMSO” value was “limited solubility in ethanol or DMSO”.

Regarding `C[C@]12CC[C@H](O)CC1=CC[C@@H]1[C@@H]2CC[C@]2(C)C(c3cccnc3)=CC[C@@H]12` [Abiraterone alcohol (3b), abiraterone alcohol, reference compound], the GI50 in data set [1] (LNCaP, MTT, 7 days, Table 2, read-out: GI50 of C-17 modified compounds) was 1.97 µM. The compound further returned an IC50 in data set [4] (setting [9]) of 0.206 µM.

`C[C@]12CC[C@H](O)CC1=CC[C@@H]1[C@@H]2CC[C@]2(C)C(n3cnc4ccccc43)=CC[C@@H]12` [Compound 5, 3β-Hydroxy-17-(1H-benzimidazol-1-yl)-androsta-5,16-diene, reference compound]: the 50% growth inhibitory concentration (GI50) in data set [1] (setting [10]) amounted to 3.35 µM. In addition, the “down-regulation of full-length AR” value in data set [2] was “significant down-regulation”. Also, the 50% inhibitory concentration (IC50) in data set [4] (setting [9]) was 0.752 µM.

Turning to `C[C@]12CC[C@H](O)CC1=CC[C@@H]1[C@@H]2CC[C@]2(C)C(n3ccc4ccccc43)=CC[C@@H]12` [Compound 16, 3β-Hydroxy-17-(1H-indol-1-yl)-androsta-5,16-diene], the melting point lay within 142 to 145 °C. Also, the GI50 in data set [1] (setting [10]) is more than 100 µM. The IC50 in data set [4] (setting [9]) is 93.7 to 258 µM and 130 µM. Also, the “AR down-regulation (ARD) activity, in words” value in data set [6] was “up-regulation of AR”.

On to `COc1ccc(NCC2=C(n3cnc4ccccc43)[C@@]3(C)CC[C@H]4[C@@H](CC=C5C[C@@H](O)CC[C@@]54C)[C@@H]3C2)cc1OC` [Compound 31, 3β-Hydroxy-17-(1H-benzimidazol-1-yl)-16-(((3,4-dimethoxyphenyl)amino)methyl)-androsta-5,16-diene], for which the GI50 in data set [1] (Homo sapiens, LNCaP, 168 h, LNCaP cells, MTT, 7 days, Table 3, read-out: GI50 of C-16 modified compounds) is more than 100 µM. In addition, the “down-regulation of full-length AR” value in data set [2] is given as “significant down-regulation”. The “down-regulation of truncated AR (AR-3)” value in data set [3] was “significant down-regulation”. The “AR down-regulation (ARD) activity, in words” value in data set [6] was “significant loss of ARD”.

For the compound `C[C@]12CC[C@H](OC(=O)c3ccccn3)CC1=CC[C@@H]1[C@@H]2CC[C@]2(C)C(n3cnc4ccccc43)=CC[C@@H]12` [Compound 41, 3β-(Pyridine-2-carboxylate)-17-(1H-benzimidazol-1-yl)-androsta-5,16-diene], the “solubility in ethanol or DMSO” value in data set [5] is given as “limited solubilities in ethanol or DMSO”.

Take `C[C@]12CC[C@H](OC(=O)c3cccnc3)CC1=CC[C@@H]1[C@@H]2CC[C@]2(C)C(n3cnc4ccccc43)=CC[C@@H]12` [Compound 42, 3β-(Pyridine-3-carboxylate)-17-(1H-benzimidazol-1-yl)-androsta-5,16-diene]: in data set [5], the “solubility in ethanol or DMSO” value is “limited solubilities in ethanol or DMSO”.

Consider `C[C@]12CC[C@H](OC(=O)c3ccncc3)CC1=CC[C@@H]1[C@@H]2CC[C@]2(C)C(n3cnc4ccccc43)=CC[C@@H]12` [Compound 43, 3β-(Pyridine-4-carboxylate)-17-(1H-benzimidazol-1-yl)-androsta-5,16-diene], for which the “inhibition of [3H]R1881 binding / displacement” value in data set [7] is recorded as approximately 53%. The GI50 in data set [1] (read-out: GI50 of C-3 modified compounds) was determined as 2.57 µM.

Compound `Cc1nccn1C(=O)O[C@H]1CC[C@@]2(C)C(=CC[C@@H]3[C@@H]2CC[C@]2(C)C(n4cnc5ccccc54)=CC[C@@H]32)C1` [Compound 48, 3β-(2-Methyl-1H-imidazole-1-carboxylate)-17-(1H-benzimidazol-1-yl)-androsta-5,16-diene] had a melting point of 186 to 187 °C. Also, the GI50 in data set [1] (setting [8]) amounted to 5.34 µM. Further, in data set [1] (relative to 47), the “fold decrease in anti-proliferative activity” value was 6 fold. Besides, in data set [4] (setting [9]), the IC50 is 93.7 to 258 µM and 93.7 µM.

In turn, `C[C@]12CC[C@H](O)CC1=CC[C@@H]1[C@@H]2CC[C@]2(C)C(n3ccnc3)=CC[C@@H]12` [VN/85-1, 3β-hydroxy-17-(1H-imidazole-1-yl)androsta-5,16-diene, reference compound] returned an IC50 in data set [4] of 0.125 µM.

The values are drawn from US9884067B2, “Androgen receptor down-regulating agents and uses thereof” (UNIVERSITY OF MARYLAND EASTERN SHORE, priority 2013, dated 2018).
